Results: paper PMC9457828, “Chemical Markers and Pharmacological Characters of Pelargonium graveolens Essential Oil from Palestine” (Molecules, 2022)
≈ marks a conversion by molar mass, not a printed value. Marks after values point to notes of the source that are not given here.

Experiments:
[1] = test system: Staphylococcus aureus (2592); test: Broth microdilution, S. aureus; assay type: cell-based
Text: (§1) The microdilution method was used to assess the antimicrobial activity of the PGEO against selected bacterial and fungal strains according to the method [49].

[2] = test system: methicillin-resistant S. aureus (MRSA); test: Broth microdilution, MRSA; assay type: cell-based; details: Staphylococcus aureus, clinical strain
Text: as §1

[3] = test system: Escherichia coli (25,922); test: Broth microdilution, E. coli; assay type: cell-based
Text: as §1

Proteus vulgaris (8427) = test: Broth microdilution, P. vulgaris; assay type: cell-based
Text: as §1

[4] = test system: Klebsiella pneumonia (13,883); test: Broth microdilution, K. pneumoniae; assay type: cell-based
Text: as §1

[5] = test system: Pseudomonas aeruginosa (9027); test: Broth microdilution, P. aeruginosa; assay type: cell-based
Text: as §1

Hep3B = test: cells; assay type: cell-based; details: Homo sapiens, 24 h, MTS
Protocol: Human cervical (HeLa), breast (MCF-7), and liver (Hep3B) cancer cell lines were cultured in RPMI-1640 medium (Sigma-Norwich, Norfolk, UK). Then each kind of the tested cells was treated with 10% fetal bovine serum mixed with 1% penicillin/streptomycin antibiotics (BI, Ghaziabad, UP, India), and 1% L-glutamine (Sigma-Norwich, Norfolk, UK). The cancer cells were cultured at 37 °C in a humidified atmosphere with 5% CO2 and then planted in a 96-well plate at 2.6 × 10^4 cells/well. After 2 days, the EO with different concentrations (10, 30, 60, 120, and 500 µg/mL) was applied to the cells for 24 h. According to the manufacturer’s guidelines, cell viability was estimated by the CellTilter 96® Aqueous One Solution Cell Proliferation (MTS) method. In the end, 100 μL of media and 20 μL of MTS solution were added to each well, and the well plates were incubated at 37 °C for 2 h. The absorbance was measured at 490 nm.

[6] = test system: Candida albicans (ATCC 90028); test: Broth microdilution, C. albicans; assay type: cell-based; details: ATCC90028
Text: as §1

lipase = biological target: lipase; design: method as in earlier work; details: PGEO from Jordan; cited from earlier work
[7] = DPPH free radical scavenging activity; details: anti-DPPH radical activity, 30 min, 517 nm
Protocol: Spectrophotometry at 517 nm was used to measure the absorbance, which was then compared with the control. The DPPH suppressant effect was calculated using the formula below: […]

S. aureus = test system: S. aureus; design: method as in PMID 26221178; details: cited from earlier work
E. coli = test system: E. coli; design: method as in PMID 26221178; details: cited from earlier work
S. aureus species = test system: S. aureus species; design: method as in PMID 31284397; details: cited from earlier work

Structure (SMILES): CC1(C)S[C@@H]2[C@H](NC(=O)[C@H](N)c3ccccc3)C(=O)N2[C@H]1C(=O)O [Ampicillin]
- MIC [1]: 6.25 ± 0.2 µg/mL (≈ 17.9 µM)
- MIC [2]: 32 ± 0.64 µg/mL (≈ 91.6 µM)
- MIC [3]: 3.12 ± 0.56 µg/mL (≈ 8.93 µM)
- MIC (Proteus vulgaris (8427)): 3.25 ± 0.21 µg/mL (≈ 9.3 µM)
- MIC [4]: 12.5 ± 0.05 µg/mL (≈ 35.8 µM)
- MIC [5]: 100 ± 1.01 µg/mL (≈ 286 µM)

Structure (SMILES): O=C(O)c1cn(C2CC2)c2cc(N3CCNCC3)c(F)cc2c1=O [Ciprofloxacin]
- MIC (Proteus vulgaris (8427)): 0.06 ± 0.001 µg/mL (≈ 0.181 µM)
- MIC [4]: 0.06 ± 0.001 µg/mL (≈ 0.181 µM)

Structure (SMILES): COc1cccc2c1C(=O)c1c(O)c3c(c(O)c1C2=O)C[C@@](O)(C(=O)CO)C[C@@H]3O[C@H]1C[C@H](N)[C@H](O)[C@H](C)O1 [Doxorubicin]
- IC50 (Hep3B): 1.21 ± 1 µg/mL (≈ 2.23 µM)

Structure (SMILES): OC(Cn1cncn1)(Cn1cncn1)c1ccc(F)cc1F [Fluconazole]
- MIC [6]: 3.12 ± 0.01 µg/mL (≈ 10.2 µM)

Structure (SMILES): CCCCCCCCCCC[C@@H](C[C@@H]1OC(=O)[C@H]1CCCCCC)OC(=O)[C@H](CC(C)C)NC=O [Orlistat]
- anti-lipase IC50 (lipase): 0.114 ± 0.0 µg/mL

Structure (SMILES): Cc1c(C)c2c(c(C)c1O)CCC(C)(C(=O)O)O2 (stereo not drawn) [Trolox]
- IC50 against DPPH [7]: 1.88 ± 0.45 ^a µg/mL

Structure (SMILES): CC(C)=CCCC(C)CCO (stereo not drawn) [citronellol]
- MIC S. aureus (S. aureus): 400 µg/mL (≈ 2560 µM)
- MIC E. coli (E. coli): 300 µg/mL (≈ 1920 µM)
- MIC S. aureus (S. aureus species): 30 µg/mL (≈ 192 µM)
